In ChEMBL document CHEMBL3860105, “Sulfonamide-Based Inhibitors of Aminoglycoside Acetyltransferase Eis Abolish Resistance to Kanamycin in Mycobacterium tuberculosis” (J Med Chem, 2016):

Assays:
[1] = tested on: Mycobacterium tuberculosis; experiment: Antimicrobial activity against Mycobacterium tuberculosis K204 at 37 uM incubation for 6 days by alamar blue assay; type: ADME; conditions: 144 h
[2] = tested on: Mycobacterium tuberculosis; experiment: Antimicrobial activity against Mycobacterium tuberculosis H37Rv at 37 uM incubation for 6 days by alamar blue assay; type: ADME; conditions: 144 h
[3] = tested on: Mycobacterium tuberculosis H37Rv; conditions: 100 uM
[4] = tested on: Mycobacterium tuberculosis; experiment: Antimicrobial activity against Mycobacterium tuberculosis H37Rv at 100 uM incubation for 6 days by alamar blue assay; type: ADME; conditions: 144 h
[5] = tested on: Mycobacterium tuberculosis; experiment: (§1) Inhibition of Mycobacterium tuberculosis K204 acetyltransferase Eis assessed as potentiation of kanamycin A-induced antimicrobial activity by measuring kanamycin A MIC level at 100 uM pre-incubated for 24 hrs before kanamycin A addition followed by incubation for 6 days by alamar blue assay (Rvb kanamycin A alone MIC = 10 ug/ml)
[6] = tested on: Mycobacterium tuberculosis; experiment: Antimicrobial activity against Mycobacterium tuberculosis K204 at 100 uM incubation for 6 days by alamar blue assay; type: ADME; conditions: 144 h
[7] = tested on: Mycobacterium tuberculosis; experiment: Inhibition of Mycobacterium tuberculosis AAC(2')-Ic at 200 uM
[8] = tested on: Mycobacterium tuberculosis; experiment: Antimicrobial activity against Mycobacterium tuberculosis H37Rv at 25 uM incubation for 6 days by alamar blue assay; type: ADME; conditions: 144 h
[9] = tested on: Mycobacterium tuberculosis; experiment: as §1, with “25” for “100”
[10] = tested on: Mycobacterium tuberculosis; experiment: Antimicrobial activity against Mycobacterium tuberculosis K204 at 25 uM incubation for 6 days by alamar blue assay; type: ADME; conditions: 144 h
[11] = tested on: Mycobacterium tuberculosis H37Rv; conditions: 25 uM
[12] = tested on: Mycobacterium tuberculosis; conditions: 20 uM
[13] = tested on: Mycobacterium tuberculosis H37Rv; conditions: 70 uM
[14] = tested on: Mycobacterium tuberculosis; experiment: as §1, with “70” for “100”
[15] = tested on: Mycobacterium tuberculosis; experiment: Antimicrobial activity against Mycobacterium tuberculosis K204 at 70 uM incubation for 6 days by alamar blue assay; type: ADME; conditions: 144 h
[16] = tested on: Mycobacterium tuberculosis; experiment: Antimicrobial activity against Mycobacterium tuberculosis H37Rv at 70 uM incubation for 6 days by alamar blue assay; type: ADME; conditions: 144 h
[17] = tested on: Mycobacterium tuberculosis; experiment: Antimicrobial activity against Mycobacterium tuberculosis H37Rv at […] incubation for 6 days by alamar blue assay; type: ADME; conditions: 144 h
[18] = tested on: Mycobacterium tuberculosis; experiment: as §1, with “100 uM” left out
[19] = tested on: Mycobacterium tuberculosis H37Rv
[20] = tested on: Mycobacterium tuberculosis; experiment: Antimicrobial activity against Mycobacterium tuberculosis K204 at […] incubation for 6 days by alamar blue assay; type: ADME; conditions: 144 h
[21] = tested on: Mycobacterium tuberculosis; experiment: as §1, with “10” for “100”
[22] = tested on: Mycobacterium tuberculosis; experiment: Antimicrobial activity against Mycobacterium tuberculosis K204 at 10 uM incubation for 6 days by alamar blue assay; type: ADME; conditions: 144 h
[23] = tested on: Mycobacterium tuberculosis; experiment: Antimicrobial activity against Mycobacterium tuberculosis H37Rv at 10 uM incubation for 6 days by alamar blue assay; type: ADME; conditions: 144 h
[24] = tested on: Mycobacterium tuberculosis H37Rv; conditions: 10 uM
[25] = tested on: Mycobacterium tuberculosis H37Rv; remark: listed apart in the source
[26] = tested on: Mycobacterium tuberculosis H37Rv; conditions: 8 uM
[27] = tested on: Mycobacterium tuberculosis; experiment: Antimicrobial activity against Mycobacterium tuberculosis H37Rv at 8 uM incubation for 6 days by alamar blue assay; type: ADME; conditions: 144 h
[28] = tested on: Mycobacterium tuberculosis; experiment: Antimicrobial activity against Mycobacterium tuberculosis K204 at 8 uM incubation for 6 days by alamar blue assay; type: ADME; conditions: 144 h
[29] = tested on: Mycobacterium tuberculosis; experiment: as §1, with “8” for “100”
[30] = tested on: Mycobacterium tuberculosis; experiment: as §1, with “30” for “100”
[31] = tested on: Mycobacterium tuberculosis; experiment: Antimicrobial activity against Mycobacterium tuberculosis H37Rv at 30 uM incubation for 6 days by alamar blue assay; type: ADME; conditions: 144 h
[32] = tested on: Mycobacterium tuberculosis H37Rv; conditions: 30 uM
[33] = tested on: Mycobacterium tuberculosis; experiment: Antimicrobial activity against Mycobacterium tuberculosis K204 at 30 uM incubation for 6 days by alamar blue assay; type: ADME; conditions: 144 h
[34] = tested on: Mycobacterium tuberculosis; experiment: Antimicrobial activity against Mycobacterium tuberculosis H37Rv at 23 uM incubation for 6 days by alamar blue assay; type: ADME; conditions: 144 h
[35] = tested on: Mycobacterium tuberculosis; experiment: as §1, with “23” for “100”
[36] = tested on: Mycobacterium tuberculosis H37Rv; conditions: 23 uM
[37] = tested on: Mycobacterium tuberculosis; experiment: Antimicrobial activity against Mycobacterium tuberculosis K204 at 23 uM incubation for 6 days by alamar blue assay; type: ADME; conditions: 144 h
[38] = tested on: Mycobacterium tuberculosis H37Rv; conditions: 37 uM
[39] = tested on: Mycobacterium tuberculosis; experiment: as §1, with “37” for “100”

Cc1cccc(N(C)S(=O)(=O)c2ccc3[nH]c(=O)c(=O)[nH]c3c2)c1
Activity [1]: Non-Toxic
Activity [2]: Non-Toxic

COc1cccc(N(C)S(=O)(=O)c2ccc3[nH]c(=O)c(=O)[nH]c3c2)c1
MIC [3]: < 1.25 µg/mL
Activity [4]: Non-Toxic
MIC [5]: < 1.25 µg/mL
Activity [6]: Non-Toxic
inhibition [7]: 15%

CC(C)c1ccc(N(C)S(=O)(=O)c2ccc3[nH]c(=O)c(=O)[nH]c3c2)cc1
Activity [8]: Non-Toxic
MIC [9]: 2.5 to 5 µg/mL
Activity [10]: Non-Toxic
MIC [11]: < 1.25 µg/mL

COc1cc(OC)cc(N(C)S(=O)(=O)c2ccc3[nH]c(=O)c(=O)[nH]c3c2)c1
MIC [3]: < 1.25 µg/mL
Activity [4]: Non-Toxic
MIC [5]: 5 to 10 µg/mL
Activity [6]: Non-Toxic

CN(c1cccc(C(C)(C)C)c1)S(=O)(=O)c1ccc2[nH]c(=O)c(=O)[nH]c2c1
MIC [3]: < 1.25 µg/mL
Activity [4]: Non-Toxic
MIC [5]: 5 to 10 µg/mL
Activity [6]: Non-Toxic

COc1cc(N(C)S(=O)(=O)c2ccc3[nH]c(=O)c(=O)[nH]c3c2)cc2ccccc12
MIC [3]: < 1.25 µg/mL
Activity [4]: Non-Toxic
MIC [5]: 10 µg/mL
Activity [6]: Non-Toxic

O=c1[nH]c2ccc(S(=O)(=O)Nc3ccc(Cl)c(C(F)(F)F)c3)cc2[nH]c1=O
fold change (FC) [12]: > 3

COc1ccccc1N(C)S(=O)(=O)c1ccc2[nH]c(=O)c(=O)[nH]c2c1
MIC [3]: < 1.25 µg/mL
Activity [4]: Non-Toxic
MIC [5]: 10 µg/mL
Activity [6]: Non-Toxic

CCCCc1cccc(N(C)S(=O)(=O)c2ccc3[nH]c(=O)c(=O)[nH]c3c2)c1
MIC [13]: < 1.25 µg/mL
MIC [14]: 5 to 10 µg/mL
Activity [15]: Non-Toxic
Activity [16]: Non-Toxic

CN(c1cccc(Br)c1)S(=O)(=O)c1ccc2[nH]c(=O)c(=O)[nH]c2c1
Activity [17]: Non-Toxic
MIC [18]: 2.5 µg/mL
MIC [19]: < 1.25 µg/mL
Activity [20]: Non-Toxic

O=c1[nH]c2ccc(S(=O)(=O)Nc3ccccc3)cc2[nH]c1=O
MIC [3]: < 1.25 µg/mL
Activity [4]: Non-Toxic
MIC [5]: 10 µg/mL
Activity [6]: Non-Toxic

O=c1[nH]c2ccc(S(=O)(=O)Nc3ccc(Br)cc3)cc2[nH]c1=O
MIC [3]: < 1.25 µg/mL
Activity [4]: Non-Toxic
MIC [5]: 5 µg/mL
Activity [6]: Non-Toxic

CC(C)c1ccc(NS(=O)(=O)c2ccc3[nH]c(=O)c(=O)[nH]c3c2)cc1
MIC [3]: < 1.25 µg/mL
Activity [4]: Non-Toxic
MIC [5]: 5 µg/mL
Activity [6]: Non-Toxic

Cc1cc(NS(=O)(=O)c2ccc3[nH]c(=O)c(=O)[nH]c3c2)ccc1Br
fold change (FC) [12]: > 3

CN(c1ccc(Cl)cc1)S(=O)(=O)c1ccc2[nH]c(=O)c(=O)[nH]c2c1
MIC [21]: 2.5 µg/mL
Activity [22]: Non-Toxic
Activity [23]: Non-Toxic
MIC [24]: < 1.25 µg/mL

CCc1cccc(N(C)S(=O)(=O)c2ccc3[nH]c(=O)c(=O)[nH]c3c2)c1
Activity [17]: Non-Toxic
MIC [18]: 5 to 10 µg/mL
MIC [25]: < 1.25 µg/mL
Activity [20]: Non-Toxic

CN(c1ccc2ccccc2c1)S(=O)(=O)c1ccc2[nH]c(=O)c(=O)[nH]c2c1
MIC [3]: < 1.25 µg/mL
Activity [4]: Non-Toxic
MIC [5]: < 1.25 µg/mL
Activity [6]: Non-Toxic

CN(c1ccccc1)S(=O)(=O)c1ccc2[nH]c(=O)c(=O)[nH]c2c1
MIC [3]: < 1.25 µg/mL
Activity [4]: Non-Toxic
MIC [5]: 5 µg/mL
Activity [6]: Non-Toxic

CN(c1ccc(Br)cc1)S(=O)(=O)c1ccc2[nH]c(=O)c(=O)[nH]c2c1
MIC [26]: < 1.25 µg/mL
Activity [27]: Non-Toxic
Activity [28]: Non-Toxic
MIC [29]: 2.5 µg/mL

CN(c1cccc(F)c1)S(=O)(=O)c1ccc2[nH]c(=O)c(=O)[nH]c2c1
MIC [30]: 5 µg/mL
Activity [31]: Non-Toxic
MIC [32]: < 1.25 µg/mL
Activity [33]: Non-Toxic

CC(C)c1cccc(N(C)S(=O)(=O)c2ccc3[nH]c(=O)c(=O)[nH]c3c2)c1
Activity [34]: Non-Toxic
MIC [35]: 2.5 to 5 µg/mL
MIC [36]: < 1.25 µg/mL
Activity [37]: Non-Toxic

Cc1cccc(N(C)S(=O)(=O)c2ccc3nc(O)c(O)nc3c2)c1
MIC [38]: < 1.25 µg/mL
MIC [39]: 2.5 to 5 µg/mL

O=c1[nH]c2ccc(S(=O)(=O)Nc3ccc4c(c3)OCCO4)cc2[nH]c1=O
fold change (FC) [12]: > 3
